# Source: PubChem BioAssay (NCI)
#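 Protocol summary: plate cells (96-well), add compound at 5 concentrations, incubate 48 h, interpolate endpoints linearly. GI50 is the concentration that inhibits growth by half. The concentration for full growth arrest is given as TGI.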
# Experiments:
# Assay in all cases: growth of human tumour cells (NCI), 48 h
# 786-0 renal = tested on: 786-0 renal
# A549 NSCLC = tested on: A549 NSCLC
# ACHN renal = tested on: ACHN renal
# BT-549 breast = tested on: BT-549 breast
# CCRF-CEM leukemia = tested on: CCRF-CEM leukemia
# COLO 205 colon = tested on: COLO 205 colon
# DU-145 prostate = tested on: DU-145 prostate
# EKVX NSCLC = tested on: EKVX NSCLC
# HCC-2998 colon = tested on: HCC-2998 colon
# HCT-15 colon = tested on: HCT-15 colon
# HOP-62 NSCLC = tested on: HOP-62 NSCLC
# HOP-92 NSCLC = tested on: HOP-92 NSCLC
# HS 578T breast = tested on: HS 578T breast
# HT29 colon = tested on: HT29 colon
# IGROV1 ovarian = tested on: IGROV1 ovarian
# K-562 leukemia = tested on: K-562 leukemia
# KM12 colon = tested on: KM12 colon
# LOX IMVI melanoma = tested on: LOX IMVI melanoma
# M14 melanoma = tested on: M14 melanoma
# MALME-3M melanoma = tested on: MALME-3M melanoma
# MDA-MB-231 breast = tested on: MDA-MB-231 breast
# MOLT-4 leukemia = tested on: MOLT-4 leukemia
# NCI-H226 lung = tested on: NCI-H226 lung
# NCI-H23 lung = tested on: NCI-H23 lung
# NCI-H460 lung = tested on: NCI-H460 lung
# NCI/ADR-RES ovarian = tested on: NCI/ADR-RES ovarian
# OVCAR-4 ovarian = tested on: OVCAR-4 ovarian
# OVCAR-5 ovarian = tested on: OVCAR-5 ovarian
# OVCAR-8 ovarian = tested on: OVCAR-8 ovarian
# PC-3 prostate = tested on: PC-3 prostate
# RPMI-8226 leukemia = tested on: RPMI-8226 leukemia
# RXF 393 renal = tested on: RXF 393 renal
# SF-268 CNS = tested on: SF-268 CNS
# SF-295 CNS = tested on: SF-295 CNS
# SF-539 CNS = tested on: SF-539 CNS
# SK-MEL-2 melanoma = tested on: SK-MEL-2 melanoma
# SK-MEL-28 melanoma = tested on: SK-MEL-28 melanoma
# SK-MEL-5 melanoma = tested on: SK-MEL-5 melanoma
# SK-OV-3 ovarian = tested on: SK-OV-3 ovarian
# SN12C renal = tested on: SN12C renal
# SNB-19 CNS = tested on: SNB-19 CNS
# SR leukemia = tested on: SR leukemia
# SW-620 colon = tested on: SW-620 colon
# TK-10 renal = tested on: TK-10 renal
# U251 CNS = tested on: U251 CNS
# UACC-257 melanoma = tested on: UACC-257 melanoma
# UO-31 renal = tested on: UO-31 renal
# A498 renal = tested on: A498 renal
# HCT-116 colon = tested on: HCT-116 colon
# OVCAR-3 ovarian = tested on: OVCAR-3 ovarian
structure (smiles),measurement,setting,value
COc1cc(C(C)c2ccc3c(ccn3C)c2)cc(OC)c1OC (centres undefined),GI50,786-0 renal,0.0288 µM
same,TGI,786-0 renal,26.7 µM
same,GI50,A549 NSCLC,0.0233 µM
same,TGI,A549 NSCLC,> 100 µM
same,GI50,ACHN renal,0.0172 µM
same,TGI,ACHN renal,> 100 µM
same,GI50,BT-549 breast,0.0231 µM
same,TGI,BT-549 breast,19.3 µM
same,GI50,CCRF-CEM leukemia,0.0307 µM
same,TGI,CCRF-CEM leukemia,> 100 µM
same,GI50,COLO 205 colon,< 0.01 µM
same,TGI,COLO 205 colon,0.0461 µM
same,GI50,DU-145 prostate,0.0343 µM
same,TGI,DU-145 prostate,> 100 µM
same,GI50,EKVX NSCLC,0.0674 µM
same,TGI,EKVX NSCLC,> 100 µM
same,GI50,HCC-2998 colon,0.0276 µM
same,TGI,HCC-2998 colon,> 100 µM
same,GI50,HCT-15 colon,0.0106 µM
same,TGI,HCT-15 colon,> 100 µM
same,GI50,HOP-62 NSCLC,0.0385 µM
same,TGI,HOP-62 NSCLC,> 100 µM
same,GI50,HOP-92 NSCLC,0.0251 µM
same,TGI,HOP-92 NSCLC,45.4 µM
same,GI50,HS 578T breast,0.0148 µM
same,TGI,HS 578T breast,> 100 µM
same,GI50,HT29 colon,< 0.01 µM
same,TGI,HT29 colon,14.2 µM
same,GI50,IGROV1 ovarian,0.0291 µM
same,TGI,IGROV1 ovarian,> 100 µM
same,GI50,K-562 leukemia,< 0.01 µM
same,TGI,K-562 leukemia,> 100 µM
same,GI50,KM12 colon,< 0.01 µM
same,TGI,KM12 colon,60.2 µM
same,GI50,LOX IMVI melanoma,0.0207 µM
same,TGI,LOX IMVI melanoma,> 100 µM
same,GI50,M14 melanoma,< 0.01 µM
same,TGI,M14 melanoma,22 µM
same,GI50,MALME-3M melanoma,11.6 µM
same,TGI,MALME-3M melanoma,63.3 µM
same,GI50,MDA-MB-231 breast,0.0551 µM
same,TGI,MDA-MB-231 breast,34.8 µM
same,GI50,MOLT-4 leukemia,0.0449 µM
same,TGI,MOLT-4 leukemia,> 100 µM
same,GI50,NCI-H226 lung,10.9 µM
same,TGI,NCI-H226 lung,57.3 µM
same,GI50,NCI-H23 lung,0.0268 µM
same,TGI,NCI-H23 lung,> 100 µM
same,GI50,NCI-H460 lung,0.0117 µM
same,TGI,NCI-H460 lung,> 100 µM
same,GI50,NCI/ADR-RES ovarian,< 0.01 µM
same,TGI,NCI/ADR-RES ovarian,> 100 µM
same,GI50,OVCAR-4 ovarian,0.414 µM
same,TGI,OVCAR-4 ovarian,> 100 µM
same,GI50,OVCAR-5 ovarian,0.0559 µM
same,TGI,OVCAR-5 ovarian,> 100 µM
same,GI50,OVCAR-8 ovarian,0.0363 µM
same,TGI,OVCAR-8 ovarian,38.5 µM
same,GI50,PC-3 prostate,0.0171 µM
same,TGI,PC-3 prostate,> 100 µM
same,GI50,RPMI-8226 leukemia,0.0362 µM
same,TGI,RPMI-8226 leukemia,22.6 µM
same,GI50,RXF 393 renal,< 0.01 µM
same,TGI,RXF 393 renal,> 100 µM
same,GI50,SF-268 CNS,0.0393 µM
same,TGI,SF-268 CNS,> 100 µM
same,GI50,SF-295 CNS,< 0.01 µM
same,TGI,SF-295 CNS,32.5 µM
same,GI50,SF-539 CNS,< 0.01 µM
same,TGI,SF-539 CNS,15.2 µM
same,GI50,SK-MEL-2 melanoma,0.0984 µM
same,TGI,SK-MEL-2 melanoma,95.8 µM
same,GI50,SK-MEL-28 melanoma,8.09 µM
same,TGI,SK-MEL-28 melanoma,> 100 µM
same,GI50,SK-MEL-5 melanoma,< 0.01 µM
same,TGI,SK-MEL-5 melanoma,0.391 µM
same,GI50,SK-OV-3 ovarian,< 0.01 µM
same,TGI,SK-OV-3 ovarian,60.7 µM
same,GI50,SN12C renal,0.0671 µM
same,TGI,SN12C renal,> 100 µM
same,GI50,SNB-19 CNS,0.0405 µM
same,TGI,SNB-19 CNS,> 100 µM
same,GI50,SR leukemia,< 0.01 µM
same,TGI,SR leukemia,> 100 µM
same,GI50,SW-620 colon,< 0.01 µM
same,TGI,SW-620 colon,> 100 µM
same,GI50,TK-10 renal,16.5 µM
same,TGI,TK-10 renal,92.6 µM
same,GI50,U251 CNS,< 0.01 µM
same,TGI,U251 CNS,39 µM
same,GI50,UACC-257 melanoma,19.4 µM
same,TGI,UACC-257 melanoma,77.6 µM
same,GI50,UO-31 renal,0.189 µM
same,TGI,UO-31 renal,62.2 µM
O=C1C(=O)c2ccccc2C(O)=C1Cc1ccccc1,TGI,786-0 renal,> 100 µM
same,TGI,A498 renal,> 100 µM
same,TGI,BT-549 breast,> 100 µM
same,TGI,EKVX NSCLC,> 100 µM
same,TGI,HCC-2998 colon,> 100 µM
same,TGI,HCT-116 colon,> 100 µM
same,TGI,HCT-15 colon,> 100 µM
same,TGI,HS 578T breast,> 100 µM
same,TGI,HT29 colon,> 100 µM
same,TGI,M14 melanoma,> 100 µM
same,TGI,MDA-MB-231 breast,> 100 µM
same,TGI,NCI-H23 lung,> 100 µM
same,TGI,NCI/ADR-RES ovarian,> 100 µM
same,TGI,OVCAR-3 ovarian,79.7 µM
same,TGI,OVCAR-4 ovarian,> 100 µM
same,TGI,OVCAR-5 ovarian,> 100 µM
same,TGI,PC-3 prostate,> 100 µM
same,TGI,SF-295 CNS,> 100 µM
same,TGI,SK-MEL-2 melanoma,> 100 µM
same,TGI,SK-MEL-28 melanoma,> 100 µM
same,TGI,SK-MEL-5 melanoma,39 µM
same,TGI,SK-OV-3 ovarian,> 100 µM
same,TGI,TK-10 renal,> 100 µM
same,TGI,UACC-257 melanoma,> 100 µM
same,TGI,UO-31 renal,> 100 µM
